Laboratory results as given in US9889181B2, “Bacteriophage lysin and antibiotic combinations against gram positive bacteria” (priority 2012, dated 2018).
In brackets after ≈: the same amount, converted by molar mass. Read-outs that look alike come from different tables or passages of the source.

How the values were obtained:
[1] = tested on: 20 different MSSA and 42 MRSA strains; test: Time-kill assay, single agents at 1×MIC; assay type: cell-based, Staphylococcus aureus; details: 1×MIC; for comparative kill: up to 6 hours
Method: In order to more fully evaluate PlySs2's applicability to clinical Staphylococcal infections, time kill studies were undertaken against numerous Staphylococcus aureus strains, including methicillin resistant and methicillin sensitive strains. Time kill assays were performed according to CLSI methodology (CLSI document M07-A9 column 32 No. 2) on 42 methicillin resistant S. aureus (MRSA) strains and 20 methicillin sensitive S. aureus (MSSA) strains. Cultures of each strain (5.5×10^5-1×10^6 starting inoculum) were treated with PlySs2 lysin and with antibiotics daptomycin, oxacillin or vancomycin for comparison for 6 hours with aeration. MRSA and MSSA strains were treated with PlySs2, daptomycin and vancomycin. MSSA strains were also treated with oxacillin. 1×MIC concentrations of the different antibiotics were utilized, based on published and established antibiotic MIC values. PlySs2 lysin treatment was at approximately 1×MIC as previously determined (see TABLE 2 above). Culture aliquots were removed hourly up to 6 hours (time points taken at 15 and 30 min, 1 hr, 2 hr, 3 hr, 4 hr, 5 hr, and 6 hr) and added to a PBS/charcoal solution (to inactivate each drug), which was then serially diluted and plated for bacterial viability. The resulting log CFU/mL was plotted for each culture. Growth controls were included for each strain and represent bacterial growth in the absence of any antibacterial agent. Exemplary log kill curves for selected MRSA strains are depicted in FIG. 1. Exemplary log kill curves for selected MSSA strains are depicted in FIG. 2.
Rapid-kill kinetics are desirable in the clinical setting to treat patients with fulminant bacterial infections.

S. aureus cell envelope = test: BODIPY-labeled antibiotic cell envelope binding time course; assay type: cell-based
Description: As a complement to the synergy studies, daptomycin and vancomycin cell envelope-binding was examined using BODIPY-fluorescein-labeled antibiotics in the presence and absence of sub-MIC levels of CF-301.

MRSA strain 269 (MW2) = test: Combination MIC in 15% surfactant (Survanta); assay type: cell-based, Staphylococcus aureus
MRSA S. aureus strains = test: Dual agent MIC assay (PlySs2 and daptomycin); assay type: cell-based, Staphylococcus aureus
[2] = tested on: MRSA strain MW2 and MSSA strain ATCC 29213; assay type: cell-based, Staphylococcus aureus
[3] = tested on: MRSA strain MW2 (also strains 738, 832); assay type: in vivo, BALB/c mice; details: FIG. 27E; 10^9 CFU, dosing at 2 hours; vancomycin 110 mg/kg twice daily, PlySs2 5.25 mg/kg
MRSA strains = test: Time kill assay, PlySs2 and antibiotic alone or in combination; assay type: cell-based, Staphylococcus aureus; details: ½ MIC of PlySs2 or ¼ MIC of vancomycin alone
[4] = tested on: MRSA Staphylococcus aureus strain (MW2); test: microbe, parasite or virus in culture; assay type: cell-based

| Compound | comparative kill [1] | time to antibiotic penetration (BODIPY-labeled daptomycin binding) (S. aureus cell envelope; in the presence of CF-301 at 1/32nd MIC) [min] | time to antibiotic penetration (BODIPY-labeled daptomycin binding) (S. aureus cell envelope; without CF-301) [min] | effective combination concentration as fraction of the MIC (MRSA strain 269 (MW2)) | effective concentration in PlySs2 plus daptomycin combination MIC (MRSA strain 269 (MW2); 24 hours) [µg/mL] | time to reach bactericidal levels (≧3-log10 reduction in CFUs) [1] [hours] | MIC alone (MRSA S. aureus strains; MRSA strain 269 (MW2), single-agent) [µg/mL] | daptomycin MIC with 0.25×MIC PlySs2 (MRSA S. aureus strains; dual agent MIC assay, strain not named) [µg/mL] | fold inhibition of MIC in the presence of Survanta ([2]; surfactant concentration of 1.25%) | fold inhibition of MIC in the presence of Survanta ([2]; surfactant up to 15%, vs MIC without surfactant) | 24 hour survival rate [3] [%] | 72 hour survival rate [3] [%] | time to cell wall-labeling with BODIPY-labeled vancomycin (S. aureus cell envelope; in the presence of CF-301 (⅛^th MIC)) [min] | time to cell wall-labeling with BODIPY-labeled vancomycin (S. aureus cell envelope; without CF-301) [min] | effect alone at sub-MIC doses up to 6 hours (MRSA strains) | fold increase in vancomycin MIC ([4]; 25-day, vancomycin-only) [fold] | vancomycin MIC, ending values ([4]; 25 day serial passage, PlySs2 (8 ug/ml) plus vancomycin (three cultures)) [µg/mL] | MIC ([4]; Staphylococcus aureus, MRSA, read-out: vancomycin MIC, starting value, MW2) [µg/mL] |
| --- | --- | --- | --- | --- | --- | --- | --- | --- | --- | --- | --- | --- | --- | --- | --- | --- | --- | --- |
| Cc1onc(-c2ccccc2)c1C(=O)N[C@@H]1C(=O)N2[C@@H]1SC(C)(C)[C@@H]2C(=O)O [Oxacillin, oxacillin, reference compound] | least effective |  |  |  |  |  |  |  |  |  |  |  |  |  |  |  |  |  |
| CCCCCCCCCC(=O)N[C@@H](Cc1c[nH]c2ccccc12)C(=O)N[C@H](CC(N)=O)C(=O)N[C@@H](CC(=O)O)C(=O)N[C@@H]1C(=O)NCC(=O)N[C@@H](CCCN)C(=O)N[C@@H](CC(=O)O)C(=O)N[C@H](C)C(=O)N[C@@H](CC(=O)O)C(=O)NCC(=O)N[C@H](CO)C(=O)N[C@@H]([C@H](C)CC(=O)O)C(=O)N[C@@H](CC(=O)c2ccccc2N)C(=O)O[C@@H]1C [Daptomycin, reference compound] | most effective against most strains | 15 | 180 | 1/1024 | 0.25 | 6 | 1 (≈ 0.617 µM) | 0.0075 | more than 20 fold | up to 256 fold |  |  |  |  |  |  |  |  |
| CN[C@H](CC(C)C)C(=O)N[C@H]1C(=O)N[C@@H](CC(N)=O)C(=O)N[C@H]2C(=O)N[C@H]3C(=O)N[C@H](C(=O)N[C@H](C(=O)O)c4cc(O)cc(O)c4-c4cc3ccc4O)[C@H](O)c3ccc(c(Cl)c3)Oc3cc2cc(c3O[C@@H]2O[C@H](CO)[C@@H](O)[C@H](O)[C@H]2O[C@H]2C[C@](C)(N)[C@H](O)[C@H](C)O2)Oc2ccc(cc2Cl)[C@H]1O [Vancomycin, vancomycin] |  |  |  |  |  |  |  |  |  |  | 20 | 3 | ≤ 5 | 30 | ineffective or poorly effective | 16 | 2 | 1 (≈ 0.69 µM) |
